Settings: drug substance

C[C@]12CC[C@H]3[C@@H](CCC4=CC(=O)CC[C@@]43C)[C@@H]1CC[C@@H]2O [Testosterone, 17β-Hydroxyandrost-4-en-3-one]
Stability in air: powder. It is odourless, and stable in air.
